Measured values published in patent publication US5747463A, “Malonate derivatives of glycolipids as cell adhesion inhibitors” (Bristol-Myers Squibb Company, priority 1996, dated 1998).

Key:
P-selectin [1] = assay: P-Selectin adhesion receptor binding: ELISA, inhibition of P-selectin binding to immobilized sulfatides (cell free); settings: 45 minutes at 37° C., pH 8.0
Experimental: Based on the availability of soluble forms of P-selectin prepared as described by Aruffo, A. et al., Cell, 67, 35-44 (1991), a binding ELISA based assay modified from Foxall, et al., J. Cell Biol., 117, 1895-902 (1992) was developed to measure inhibitors of P-selectin binding to immobilized sulfatides. Such inhibitors were tested in the assay described below.
0.1 ml of sulfatide (SIGMA) at 1 μg/ml in MeOH was added to 48 wells of a 96-well ELISA plate (ProBind, Falcon) and allowed to dry overnight at room temperature. Another set of 48 wells were incubated with the solvent (methanol, Fisher Scientific). The next day the antigen/solvent coated plates were blocked for 1.5 hours at room temperature with 5% BSA (ICN) in buffer containing 20 mM Hepes, 1 mM CaCl2 and 0.15M NaCl, pH 8.0. […] Bound complexes were detected by addition of substrate buffer (95 mM NaOAc.3H2 O, 5 mM citric acid monohydrate, 1.4 mM urea/H2 O2) containing 3,3',5,5'-tetramethylbenzidine (SIGMA). Reactions were stopped by the addition of 3N sulfuric acid and the absorbance read on an ELISA reader at dual wavelengths 450 and 630 nm. […] The data is obtained as percent inhibition of specific binding [formula] and a plot of dose vs. percent inhibition of Rg binding is generated in which IC50 (μM) is calculated and reported as cell free data in Table 1.

[2] = tested on: platelet: HL-60 cell adhesion; assay: HL-60 Platelet Cell Adhesion Assay; format: cell-based; settings: 0.5 h; thrombin-activated human platelets: HL-60 5:1, 30 minutes at room temperature; read-out: P-selectin HL-60 Platelets IC50
Experimental: HL-60 cells, obtained from American Type Culture Collection, were cultured in RPMI 1640 medium (GIBCO) supplemented with 20% fetal calf serum (Sigma) and 50 μg/ml gentamicin (GIBCO). Cells in log phase growth were harvested, washed and resuspended in Tyrodes buffer containing 5 mM HEPES and 0.2% bovine serum albumin and were fixed with 1% buffered formalin.
Blood from normal human donors was anticoagulated with citrate, layered over 1-Step Platelets (Accurate Chemical Co.) and centrifuged at 350 g for 20 minutes at room temperature. The platelet band was collected, diluted in 2 volumes of Tyrode's Buffer with 5 mM HEPES, 10 mM EDTA, and 0.2% BSA (pH 7.4) (THEB) and centrifuged at 600 g for 10 minutes. The platelet pellet was resuspended in THEB and incubated at room temperature for 1 hour. Calcein-acetoxy methylester (Calcein-Am, Molecular Probes) was added to the platelets at a final concentration of 10 μM and incubated for 10 minutes at 37° C. to label the platelets. Without washing, the platelets were counted on a Coulter counter model ZM, and the concentration was adjusted to 1×10^7 /ml. The platelets were activated with 2 U/ml of human thrombin for 10 minutes in Tyrode's containing 2 mM CaCl2, 5 mM HEPES, and 0.2% BSA (pH 7.4) (THB) at 37° C. and immediately fixed with 1% buffered formalin for 1 to 2 hours at room temperature. A small aliquot of labeled platelets was removed before activation and designated as non-activated.
Both platelets and HL-60 were washed in a ≥25 fold excess volume of Hanks Balanced Salt Solution (HBSS), resuspended in THB and counted. Cell concentrations were adjusted to 2×10^7 /ml for platelets and 4×10^6 /ml for HL-60, this ratio determined to be optimum for platelet: HL-60 cell adhesion. Compounds were incubated with 50 μl of platelets for 30 minutes at room temperature before addition of 50 μl of HL-60. This ratio of 5:1 platelets to HL-60 was incubated for 30 minutes at room temperature before addition of 0.2 ml of THB to increase the volume so the samples could be analyzed on a FACScan cytometer (Becton Dickinson). Non-activated platelets, and activated platelets with 10 mM EDTA were included as controls. Data were collected within a region set for the forward scatter channel corresponding to HL-60 size events.
The percent HL-60 cells which contained bound platelets was determined for each test condition. The inhibition of binding was determined by comparison to standards which were treated with vehicle alone (representing 0% inhibition) and standards whose specific binding had been blocked by the use of EDTA (representing 100% inhibition), by the following formula: [formula] where x=HL-60 cells containing bound platelets in the presence of the compound;
b=HL-60 cells containing bound platelets in the presence of EDTA;
a=HL-60 cells containing bound platelets in the presence of compound vehicle;
z=% inhibition of platelet: HL-60 cell adhesion

rats = assay: Reverse Passive Arthus Reaction in Rats (RPA); format: in vivo, male Sprague Dawley rats; settings: single dose of 3 mg IV, rat, 4 hours after BSA
Excerpt: The reverse passive Arthus reaction in rats is a modification of the method by Mulligan et al., as described in J. Clin. Invest, (1991) 88: 1396-1406. This is an experimental model in which the interaction of antigen-antibodycomplexes and complement leads to a severe vasculitis that is associated with edema, induration, erythema and hemorrhage. The interaction between the antigen-antibody complexes and complement leads to a localized influx of neutrophils. These neutrophils release a variety of mediators that are associated with tissue damage and vascular permeability. The localized inflammatory reaction is measured using different techniques i.e., vascular permeability and neutrophil influx which is evaluated both biochemically and microscopically.
Male Sprague Dawley specific pathogen-free rats with jugular vein cannulae (280-320 g, Hill Top Labs, Pennsylvania) are used in these studies. Animals are acclimated for at least 1 day and individually housed in stainless steel cages. The dorsal region of the rats is closely clipped 2 days prior to the experiments and divided into 4 sites on each side of the midline. Prior to all injections the rats are sedated with 0.4 ml per 300 gm rat of ketamine/rompun [1000 mg (10 ml) of ketamine HCl is mixed with 40 mg (2.0 ml) Rompun] administered IP and or inhalation anesthesia with metafane (methoxyflurane).
Bovin Serum Albumin (BSA) and rabbit polyclonal IgG rich in anti-BSA are purchased from Sigma Chemical Co. (St. Louis, Mo.). Radiolabelled ^125 I-BSA (spAct 1-5 μCi/μg) is purchased from Dupont NEN (Boston, Mass.).
Each rat is administered intradermal (ID) injection of (0.4 mg, 0.6 mg and 0.8 mg) anti-BSA in a volume of 100 μl per injection in normal saline. The ID injections are randomized near the mid dorsal region on both sides of the back bone. Immediately after the ID injections of the anti-BSA, the rats are administered intravenous (IV) injections of BSA (10 mg in 1.0 ml) in normal saline containing ^125 I labeled BSA (1 μCi/ml BSA or 5.0 μCi/kg body/wt) for quantification of dermal valscular injury. Anti-inflammatory agents such as inhibitors of adhesion molecules of the present invention are administered IV at a single dose of 3 mg immediately after BSA. Four (4) hours after the IV injection of BSA, the rats are anesthetized with metafane and 2 to 3 ml of blood is withdrawn via the cannula into an anticoagulant containing (EDTA or Heparin) tube and plasma separated and saved for neutrophil and albumin quantitation. The rats are killed and the skin surrounding the injection site (15 mm diameter) is punched out and weighed. The skin sample and a fixed volume of plasma (0.1 to 1.0 ml) is analyzed in a gamma-counter for ^125 I content. Skin samples from the contralateral side are processed and analyzed for myeloperoxidase activity (MPO) as a measure of neutrophil accumulation. As needed, samples are also processed for histological evaluation of the reacted sites.
The calculation of the plasma protein exudation into skin is made by determining the radioactivity in the tissue and relating this to the level of radioactive albumin in the blood at the time of sacrifice. […] [formula]
Percent inhibition of the test compound at 3 mg was determined as follows: [formula] Myeloperoxidase (MPO)
MPO is located in the azurophil granules of polymorphonuclear leukocytes (PMN). Because of its abundance in these cells (5% dry weight), this enzyme is used as a marker for tissue neutrophil content. For tissue MPO content, the method of Bradley, et al., was used as described in J. Invest. Dermatol. (1982) 78: 206-209. Biopsies from each treatment group were placed in plastic tubes (15×100 mm) containing 10 ml of 0.5% hexadecyltrimethylammonium bromide (HTAB) in 0.05M potassium phosphate buffer pH 6.0. The tissue was then homogenized with a Brinkmann Polytron homogenizer (10s). […]

myeloid cell lines = settings: cells grown in the presence of the substance; cited from earlier work
P-selectin [3] = biological target: T1, P-selectin (Homo sapiens, UniProt P16109); settings: literature; cited from earlier work
T1 sequence (P16109 42-830): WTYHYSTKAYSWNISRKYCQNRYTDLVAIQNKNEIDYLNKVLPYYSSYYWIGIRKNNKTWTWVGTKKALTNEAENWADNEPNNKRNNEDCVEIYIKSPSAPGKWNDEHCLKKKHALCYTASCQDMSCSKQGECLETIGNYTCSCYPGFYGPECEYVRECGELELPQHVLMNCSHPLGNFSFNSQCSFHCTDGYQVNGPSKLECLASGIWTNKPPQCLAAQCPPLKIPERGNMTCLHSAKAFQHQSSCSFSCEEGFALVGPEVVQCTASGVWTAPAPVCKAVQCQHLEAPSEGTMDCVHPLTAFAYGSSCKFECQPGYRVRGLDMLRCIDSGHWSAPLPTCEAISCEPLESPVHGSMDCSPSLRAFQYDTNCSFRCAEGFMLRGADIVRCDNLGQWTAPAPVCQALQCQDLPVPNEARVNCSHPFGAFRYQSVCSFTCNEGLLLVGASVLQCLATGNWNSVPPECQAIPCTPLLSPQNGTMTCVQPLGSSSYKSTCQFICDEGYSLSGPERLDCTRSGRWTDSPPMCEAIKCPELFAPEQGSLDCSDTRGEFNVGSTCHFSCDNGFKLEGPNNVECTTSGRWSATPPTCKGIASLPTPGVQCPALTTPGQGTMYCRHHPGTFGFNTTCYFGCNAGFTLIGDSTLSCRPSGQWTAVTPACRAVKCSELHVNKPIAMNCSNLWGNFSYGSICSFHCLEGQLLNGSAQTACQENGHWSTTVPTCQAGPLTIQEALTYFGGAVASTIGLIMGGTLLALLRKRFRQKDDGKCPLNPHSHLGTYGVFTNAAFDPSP

Row | Compound | IC50 (P-selectin [1]) | IC50 [2] | RPA MPO % Inhib. (myeloperoxidase) (rats) | RPA VP % Inhib. (vascular permeability) (rats) | inhibition of binding of P-selectin to myeloid cell lines (myeloid cell lines) | binding to P-selectin (P-selectin [3])
1 | CCCCCCCCCCCCC/C=C/[C@@H](OC(=O)c1ccccc1)[C@H](CO[C@H]1O[C@H](CO)[C@H](O)[C@H](OC(=O)c2ccccc2)[C@H]1OCCCCC(C(=O)O)C(=O)O)NC(=O)CCCCCCCCCCCCCCC [Example 4, (2S,3R,4E)-3-Benzoyloxy-2-hexadecanoylamino-1-[2-O-(5,5-dicarboxypent-1-yl)-3-O-benzoyl-α-D-galactopyranosyloxy]-4-octadecene] | 7 µM | 19 µM | 84% | 60% |  | 
2 | O=[Se](=O)(O)O [sodium selenate] |  |  |  |  | can be inhibited | 
3 | CC(=O)N[C@H]1C(O)O[C@H](CO)[C@@H](O[C@@H]2O[C@H](CO)[C@H](O)[C@H](O)[C@H]2O)[C@@H]1O[C@@H]1O[C@@H](C)[C@@H](O)[C@@H](O)[C@@H]1O (stereo partly shown) [Le^x] |  |  |  |  |  | shown to bind
4 | CCCCCCCCCCCCC/C=C/[C@@H](OC(=O)c1ccccc1)[C@H](CO[C@H]1O[C@H](CO)[C@H](O)[C@H](OC(=O)c2ccccc2)[C@H]1OCCC(C(=O)O)C(=O)O)NC(=O)CCCCCCCCCCCCCCC [Example 2, (2S,3R,4E)-3-Benzoyloxy-2-hexadecanoylamino-1-[2-O-(3,3-di-carboxyprop-1-yl)-3-O-benzoyl-α-D-galactopyranosyloxy]-4-octadecene] | 8.2 µM | 12 µM | 96% | 41% |  | 
